Data on eight molecules can be found in article PMC7142328 (Journal of natural products, 2018).

Series [1] addresses native nAChR in rat forebrain (Rattus norvegicus, UniProt P09483+P12390). It is filed as binding.
The target in series [2] is T1, rat α4β2 nAChR (Rattus norvegicus, UniProt P09483+P12390). It is filed as cell-based.
The next series in a line: In-vivo toxicity. The note with it: male, Swiss-Webster, mouse, in vivo, iv.
Series [3] addresses T2, rat α7 nAChR (Rattus norvegicus, UniProt Q05941). It is filed as cell-based.
In series [4] the target is T3, rat α3β4 nAChR (Rattus norvegicus, UniProt P04757+P12392). It is filed as binding.
The target in the next series is rat α3β2 nAChR (Rattus norvegicus, UniProt P04757+P12390). The series is described as follows: Two-electrode voltage clamp electrophysiology in Xenopus oocytes, α3β2. It is filed as cell-based.
Series [5] deals with T3, rat α3β4 nAChR. Description: cell-based. It is filed as cell-based.
For the next series, the target named is Human α4β2 nAChR (Homo sapiens, UniProt P17787+P43681). It is filed as cell-based. The note with it: for agonist character, α4β2: relative to nicotine.
Series [6] concerns the target T1, rat α4β2 nAChR. It is filed as binding.
The next series deals with T4, 5-HT3A receptor (Rattus norvegicus, UniProt P35563).
T4 sequence (P35563 24-483): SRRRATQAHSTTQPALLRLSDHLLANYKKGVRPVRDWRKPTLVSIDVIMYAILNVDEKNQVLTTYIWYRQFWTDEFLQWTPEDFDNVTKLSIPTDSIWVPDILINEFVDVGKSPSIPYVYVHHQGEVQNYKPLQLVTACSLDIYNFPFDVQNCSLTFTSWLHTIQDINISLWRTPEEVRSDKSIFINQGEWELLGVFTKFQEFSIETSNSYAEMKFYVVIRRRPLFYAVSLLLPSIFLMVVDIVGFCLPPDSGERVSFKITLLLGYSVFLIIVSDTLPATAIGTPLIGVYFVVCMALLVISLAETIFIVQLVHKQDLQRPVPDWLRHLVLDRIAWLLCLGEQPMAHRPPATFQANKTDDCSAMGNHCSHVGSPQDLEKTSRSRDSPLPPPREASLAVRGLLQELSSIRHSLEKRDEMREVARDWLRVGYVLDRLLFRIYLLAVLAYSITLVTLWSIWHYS
The series is described as follows: Two-electrode voltage clamp electrophysiology in Xenopus oocytes, 5-HT3A. It is filed as cell-based.

The test system of series [7] is Swiss-Webster mice. The note with it: cited from earlier work.
Series [8] concerns the target T2, rat α7 nAChR. It is filed as binding.
In the next series the test system is nAChR. The series is described as follows: Overall nAChR pharmacology, summary statements. The note with it: most receptors tested.
Series [9] deals with Swiss-Webster mice. The series is described as follows: In-vivo toxicity. As to conditions: mice; for signs of toxicity: intravenous.

T3 sequence (P12392 21-495): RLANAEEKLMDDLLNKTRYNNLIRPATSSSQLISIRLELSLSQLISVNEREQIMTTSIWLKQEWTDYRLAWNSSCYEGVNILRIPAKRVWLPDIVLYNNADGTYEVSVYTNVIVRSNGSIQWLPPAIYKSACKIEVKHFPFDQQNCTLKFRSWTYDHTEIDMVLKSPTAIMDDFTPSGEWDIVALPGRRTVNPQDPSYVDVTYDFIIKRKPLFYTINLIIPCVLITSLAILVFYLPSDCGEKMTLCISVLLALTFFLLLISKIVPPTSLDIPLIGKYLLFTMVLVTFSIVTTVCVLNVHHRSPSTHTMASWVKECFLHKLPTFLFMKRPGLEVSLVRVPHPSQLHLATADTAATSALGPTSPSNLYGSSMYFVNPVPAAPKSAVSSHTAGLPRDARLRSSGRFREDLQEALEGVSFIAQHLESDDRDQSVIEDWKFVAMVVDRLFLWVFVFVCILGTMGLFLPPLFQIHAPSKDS
T3 sequence (P04757 26-499): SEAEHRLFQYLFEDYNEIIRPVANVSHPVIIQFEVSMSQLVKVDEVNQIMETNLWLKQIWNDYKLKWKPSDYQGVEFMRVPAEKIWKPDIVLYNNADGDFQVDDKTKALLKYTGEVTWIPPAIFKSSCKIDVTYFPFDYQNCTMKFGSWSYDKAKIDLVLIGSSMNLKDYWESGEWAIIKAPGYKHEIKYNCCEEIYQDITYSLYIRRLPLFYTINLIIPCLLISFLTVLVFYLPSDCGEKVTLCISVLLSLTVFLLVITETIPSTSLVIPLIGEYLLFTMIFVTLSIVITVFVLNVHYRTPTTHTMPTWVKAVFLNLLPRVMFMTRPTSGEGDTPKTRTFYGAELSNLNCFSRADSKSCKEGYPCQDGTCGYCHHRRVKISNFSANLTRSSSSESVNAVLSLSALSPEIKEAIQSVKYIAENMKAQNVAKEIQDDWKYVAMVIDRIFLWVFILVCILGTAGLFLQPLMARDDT
Sequence of Human α4β2 nAChR (P43681 29-627 limits assumed): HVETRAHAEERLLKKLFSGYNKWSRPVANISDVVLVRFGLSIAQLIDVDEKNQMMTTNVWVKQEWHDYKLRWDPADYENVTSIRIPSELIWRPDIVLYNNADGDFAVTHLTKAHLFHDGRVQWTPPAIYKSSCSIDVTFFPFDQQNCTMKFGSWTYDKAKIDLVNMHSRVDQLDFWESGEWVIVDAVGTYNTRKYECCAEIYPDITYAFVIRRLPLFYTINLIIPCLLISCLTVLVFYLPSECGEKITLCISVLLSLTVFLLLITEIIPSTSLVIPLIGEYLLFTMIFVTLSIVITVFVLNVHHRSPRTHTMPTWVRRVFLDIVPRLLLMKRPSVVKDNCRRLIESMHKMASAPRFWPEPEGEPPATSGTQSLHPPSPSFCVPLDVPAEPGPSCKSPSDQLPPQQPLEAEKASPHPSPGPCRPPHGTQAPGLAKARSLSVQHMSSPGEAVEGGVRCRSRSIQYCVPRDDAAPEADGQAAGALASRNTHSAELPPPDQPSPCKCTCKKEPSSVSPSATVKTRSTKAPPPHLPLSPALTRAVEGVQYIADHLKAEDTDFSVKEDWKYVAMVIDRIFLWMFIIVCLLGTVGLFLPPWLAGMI
Sequence of Human α4β2 nAChR (P17787 26-502): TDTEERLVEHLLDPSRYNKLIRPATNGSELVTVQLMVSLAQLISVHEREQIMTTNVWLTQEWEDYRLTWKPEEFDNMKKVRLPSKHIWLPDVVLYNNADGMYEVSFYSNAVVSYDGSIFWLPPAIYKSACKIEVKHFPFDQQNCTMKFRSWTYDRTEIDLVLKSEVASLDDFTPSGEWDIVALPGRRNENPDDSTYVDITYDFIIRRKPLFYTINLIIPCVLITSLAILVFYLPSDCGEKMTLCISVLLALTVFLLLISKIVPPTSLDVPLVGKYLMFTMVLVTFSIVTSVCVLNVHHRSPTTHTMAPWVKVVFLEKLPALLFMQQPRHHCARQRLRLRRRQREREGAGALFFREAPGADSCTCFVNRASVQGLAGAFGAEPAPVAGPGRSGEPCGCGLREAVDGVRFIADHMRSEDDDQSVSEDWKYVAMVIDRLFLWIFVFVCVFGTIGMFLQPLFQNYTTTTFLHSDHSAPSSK
T2 sequence (Q05941 23-502): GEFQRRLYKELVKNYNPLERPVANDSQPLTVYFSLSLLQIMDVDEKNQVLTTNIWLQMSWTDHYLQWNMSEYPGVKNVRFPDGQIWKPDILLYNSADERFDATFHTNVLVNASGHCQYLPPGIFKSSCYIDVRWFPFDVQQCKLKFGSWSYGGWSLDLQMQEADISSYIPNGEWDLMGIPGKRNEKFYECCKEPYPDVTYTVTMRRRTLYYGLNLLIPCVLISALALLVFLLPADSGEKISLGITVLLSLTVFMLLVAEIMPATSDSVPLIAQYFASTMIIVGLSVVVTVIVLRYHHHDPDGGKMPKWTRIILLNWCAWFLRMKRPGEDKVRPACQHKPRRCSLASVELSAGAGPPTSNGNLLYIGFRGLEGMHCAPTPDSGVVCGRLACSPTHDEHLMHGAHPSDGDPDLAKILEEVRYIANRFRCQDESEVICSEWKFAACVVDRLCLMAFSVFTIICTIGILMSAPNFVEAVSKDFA
T1 sequence (P09483 31-630): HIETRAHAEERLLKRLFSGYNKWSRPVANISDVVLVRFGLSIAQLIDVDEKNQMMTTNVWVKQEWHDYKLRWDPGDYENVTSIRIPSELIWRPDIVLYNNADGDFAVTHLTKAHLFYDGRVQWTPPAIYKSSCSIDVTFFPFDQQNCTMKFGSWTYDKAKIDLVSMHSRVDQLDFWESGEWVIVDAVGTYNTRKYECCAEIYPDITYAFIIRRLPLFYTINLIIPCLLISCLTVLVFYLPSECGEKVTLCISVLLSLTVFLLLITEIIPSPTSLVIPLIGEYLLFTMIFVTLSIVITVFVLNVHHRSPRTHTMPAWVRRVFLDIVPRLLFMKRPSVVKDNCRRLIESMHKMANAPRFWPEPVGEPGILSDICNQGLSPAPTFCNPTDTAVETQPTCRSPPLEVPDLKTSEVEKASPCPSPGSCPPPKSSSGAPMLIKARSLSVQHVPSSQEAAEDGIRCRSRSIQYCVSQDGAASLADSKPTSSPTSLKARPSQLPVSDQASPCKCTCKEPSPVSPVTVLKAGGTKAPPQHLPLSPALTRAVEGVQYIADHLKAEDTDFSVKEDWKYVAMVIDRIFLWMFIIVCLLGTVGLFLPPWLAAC
T1 sequence (P12390 25-500): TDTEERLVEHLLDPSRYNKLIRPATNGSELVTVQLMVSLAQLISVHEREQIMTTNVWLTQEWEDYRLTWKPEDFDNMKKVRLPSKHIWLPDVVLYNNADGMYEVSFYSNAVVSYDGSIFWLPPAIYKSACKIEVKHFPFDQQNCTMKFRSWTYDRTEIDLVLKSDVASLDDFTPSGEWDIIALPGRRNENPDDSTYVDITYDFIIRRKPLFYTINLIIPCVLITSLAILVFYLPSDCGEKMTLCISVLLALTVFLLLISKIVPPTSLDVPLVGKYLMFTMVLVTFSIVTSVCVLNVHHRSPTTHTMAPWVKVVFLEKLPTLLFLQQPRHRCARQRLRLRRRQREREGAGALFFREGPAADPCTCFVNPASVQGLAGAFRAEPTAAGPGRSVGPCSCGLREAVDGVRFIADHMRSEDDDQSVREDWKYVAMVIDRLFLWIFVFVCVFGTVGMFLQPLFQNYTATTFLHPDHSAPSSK
Sequence of rat α3β2 nAChR (P04757 26-499): as the sequence (P04757 26-499) above
Sequence of rat α3β2 nAChR (P12390 25-500): as the sequence (P12390 25-500) above
Sequence of native nAChR in rat forebrain (P12390 25-500): as above
Sequence of native nAChR in rat forebrain (P09483 31-630): as the sequence (P09483 31-630) above

On to `Clc1ccc2c(n1)OC13CCC1NCC23` (racemic) [(±)-1, phantasmidine], for which the “lower binding affinity than epibatidine (2a), native receptors in rat forebrain” value in series [1] worked out at 25 fold. Further, the “Hillslope α4β2” value on rat α4β2 nAChR [2] came out at 1.6. Besides, the “agonist character, α4β2” value on rat α4β2 nAChR [2] (vs acetylcholine, oocytes) is on record as “partial agonist”. In addition, in the series “In-vivo toxicity”, the 50% lethal dose (LD50) is 0.27 ± 0.19 mg/kg. For the same molecule, the “Hillslope α7” value on rat α7 nAChR [3] turned out to be 1.8. The “agonist character, α7” value on rat α7 nAChR [3] (vs acetylcholine, oocytes) is reported as “full agonist”. Further, the “lower binding affinity than epibatidine (2a), α3β4” value on rat α3β4 nAChR [4] came out at 50 fold. Further, the “Hillslope α3β2” value on rat α3β2 nAChR is listed as 1.57. Also, the “agonist character, α3β2” value on rat α3β2 nAChR (vs acetylcholine, oocytes) is “partial agonist”. The “Eudismic Ratio, 86Rb efflux α3β4” value on rat α3β4 nAChR [5] came to 47. For the same molecule, the “difference in functional potency vs 2a, α3β4” value at rat α3β4 nAChR [5] (86Rb efflux) came to 18 fold. At rat α3β4 nAChR [5] (86Rb efflux, relative to nicotine), the “agonist character, α3β4” value is given as “near-full agonist”. The “Eudismic Ratio, 86Rb efflux α4β2” value at Human α4β2 nAChR is listed as 280. At Human α4β2 nAChR (86Rb efflux), the “difference in functional potency vs 2a, α4β2” value is recorded as 8 fold and the “agonist character, α4β2” value is reported as “very potent partial agonist”. Also, at rat α4β2 nAChR [6], the “lower binding affinity than epibatidine (2a), α4β2” value was found to be 10 fold. Moreover, the “higher affinity for α4β2 over α3β4 receptors” value at rat α4β2 nAChR [6] (binding) is recorded as “at least 30 fold”. In addition, the “Hillslope 5HT3A” value at 5-HT3A receptor is given as 1.7. The “agonist character, 5-HT3A” value on 5-HT3A receptor (vs meta-chlorophenylbiguanide (mCPBG), oocytes) is reported as “partial agonist”.

For the molecule `Clc1ccc(C2CC3CCC2N3)cn1` (racemic) [(±)-2, epibatidine, reference compound], in the series “In-vivo toxicity”, the LD50 came out at 0.0015 ± 0.0003 mg/kg.

`CN1CCC[C@H]1c1cccnc1` [2S-(−)-Nicotine, reference compound]: the LD50 in mouse in the series on Swiss-Webster mice [7] is 0.3 mg/kg. For the same molecule, the maximum response (Emax) at rat α3β4 nAChR [5] (read-out: Emax Rat α3β4) amounted to 107 ± 3%.

In the case of `Clc1ccc2c(n1)O[C@]13CC[C@H]1NC[C@H]23` [(2aR,4aS,9aS)-1, phantasmidine], the “affinity less than 2a, α7” value at rat α7 nAChR [8] is reported as 2 fold. The “Hillslope α4β2” value at rat α4β2 nAChR [2] was 1.8. Further, in the series with nAChR, the “less potent than epibatidine” value is on record as ~ 10 fold and the “more potent than nicotine” value is reported as ~ 100 fold. The “less toxic than racemic 2a” value with Swiss-Webster mice [9] (LD50 comparison) is 48 fold. For the same molecule, in the series with Swiss-Webster mice [9] (dose of 40 μg/kg), the signs of toxicity entry was “piloerection, slight elevated respiration and complete recovery in less than 1 min”. Further, the signs of toxicity result with Swiss-Webster mice [9] (dose of 50 μg/kg) is “piloerection, elevated respiration, hyperactivity (running) progressing to tonic clonic seizures and death in less than 30 sec”. The “eudismic ratio of toxicity” value in the series on Swiss-Webster mice [9] is recorded as “around 100”. Also, the median lethal dose (LD50) in “In-vivo toxicity” amounted to 0.072 ± 0.014 mg/kg. In addition, at rat α7 nAChR [3], the “Eudismic Ratio, electrophysiology α7” value worked out at 5 and the “Hillslope α7” value stood at 1.5. For the same molecule, the “higher affinity than the distomer ent-1” value on rat α4β2 nAChR [6] (across the subtypes and forebrain of Table 1) is recorded as 30-44 fold.

As to `Clc1ccc2c(n1)O[C@@]13CC[C@@H]1NC[C@@H]23` [(2aS,4aR,9aR)-ent-1], on rat α4β2 nAChR [2], the “Hillslope α4β2” value was determined as 1.7. For the same molecule, the “Hillslope α7” value at rat α7 nAChR [3] is on record as 1.3. Besides, the “agonist character, α4β2” value on Human α4β2 nAChR (86Rb efflux) is “full agonist”.

On to `CC(=O)OCC[N+](C)(C)C` [Acetylcholine, reference compound], for which, on rat α4β2 nAChR [2], the “Hillslope α4β2” value was 24 ± 6 (1.0 ± 0.1) 1.0 and the “Imax α4β2” value is 24 ± 6 (1.0 ± 0.1) 1.0. Moreover, on rat α7 nAChR [3], the “Hillslope α7” value is reported as 1.5. In addition, the “Imax α7” value at rat α7 nAChR [3] (normalized to 1 mm acetylcholine) turned out to be 1.0 ± 0.1.

Regarding `CO[C@H]1CC=C2CCN3CCC4=C(CC(=O)OC4)[C@]23C1` [DHβE, dihydro-β-erythroidine, reference compound], at rat α4β2 nAChR [2] (2 min pre-application of 10 nM DHβE, n=4, α3β2 and α4β2 currents), the “block of currents induced by 10 nM (±)-1” value is listed as “completely blocked”.

With `CN1[C@@H]2CC[C@H]1C[C@@H](OC(=O)c1c[nH]c3ccccc13)C2` [tropisetron, reference compound], the “block of currents induced by 100 μM (±)-1” value on 5-HT3A receptor was “completely blocks”.
